From patent publication US12071404B2, “Aza (indole)-, benzothiophene-, and benzofuran-3-sulfonamides” (UCB Pharma GmbH, priority 2016, dated 2024) come the findings set out here.

SMILES strings stand for the structures.

Assay [1] concerns the target T1, GPR17 (Homo sapiens, UniProt Q13304). The assay is described as follows: cAMP accumulation functional assay (HTRF, Schild analysis). It is filed as cell-based. Also on record: host or cells: Flp-In T-REx CHO. Particulars: CHO hGPR17 cells, Schild analysis vs MDL29,951, 5 μM forskolin, read-out: cAMP assay pA2 (converted). In a few lines: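 Antagonist affinity (pA2) came from Schild plots of dose ratios, based on MDL29,951 concentration-response curves fitted by 4-parameter logistic. The read-out was HTRF cAMP in 5,000 doxycycline-induced CHO hGPR17 cells per well, with 30 min compound preincubation and 60 min stimulation, at room temperature in pH 7.4 buffer.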

In assay [2] the target is T1, GPR17. The assay is described as follows: Calcium mobilization functional assay (GPR17 Ca2+ assay). The format is cell-based. Details: host or cells: Flp-In T-REx CHO. Particulars: CHO hGPR17 cells, inhibition of 50 nM MDL29,951, Calcium 5 dye, FLIPR; read-out: Ca2+ assay pIC50 (converted). The gist of the method: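 pIC50 values were fitted with a 4-parameter logistic curve. They reflect test-compound inhibition of cytosolic Ca2+ release evoked by 50 nM MDL29,951, tracked as Calcium 5 fluorescence at room temperature. Cells were CHO Flp-In T-REx stably carrying human GPR17, induced with doxycycline 1 μg/mL for 16-20 h.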

T1 sequence (Q13304 whole entry): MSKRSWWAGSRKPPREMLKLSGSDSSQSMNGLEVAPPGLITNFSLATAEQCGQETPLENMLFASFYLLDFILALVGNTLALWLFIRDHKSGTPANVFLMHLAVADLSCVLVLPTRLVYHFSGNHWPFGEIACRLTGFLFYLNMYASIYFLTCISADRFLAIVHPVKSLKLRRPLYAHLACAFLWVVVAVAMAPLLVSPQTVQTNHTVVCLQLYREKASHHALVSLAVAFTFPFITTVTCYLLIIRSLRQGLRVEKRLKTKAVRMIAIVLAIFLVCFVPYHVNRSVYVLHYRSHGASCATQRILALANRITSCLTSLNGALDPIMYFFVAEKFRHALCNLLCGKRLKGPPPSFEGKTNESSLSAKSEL

As to `COc1cc(Br)cnc1NS(=O)(=O)c1c[nH]c2cc(Cl)ccc12` [Compound I-129, N-(5-bromo-3-methoxypyridin-2-yl)-6-chloro-1H-indole-3-sulfonamide], on GPR17 [1], the Kb was 3.16 to 31.6 nM. Further, the IC50 at GPR17 [2] was 3.16 to 31.6 nM.
On to `N#Cc1cc(NS(=O)(=O)c2c[nH]c3cc(Cl)ccc23)c2c(c1)OC(F)(F)O2` [Compound I-132, 6-chloro-N-(6-cyano-2,2-difluoro-1,3-benzodioxol-4-yl)-1H-indole-3-sulfonamide], for which the Kb on GPR17 [1] was 3.16 to 31.6 nM. Also, the IC50 at GPR17 [2] is 3.16 to 31.6 nM.
With `N#Cc1ccc(NS(=O)(=O)c2c[nH]c3cc(C4CC4)ccc23)cc1` [Compound I-133, N-(4-cyanophenyl)-6-cyclopropyl-1H-indole-3-sulfonamide], the Kb on GPR17 [1] is 3.16 to 31.6 nM. In addition, the IC50 on GPR17 [2] was < 3.16 nM.
The matching figures for `N#Cc1ccc(NS(=O)(=O)c2c[nH]c3cc(Br)ccc23)cc1` [Compound I-134, 6-bromo-N-(4-cyanophenyl)-1H-indole-3-sulfonamide]: < 3.16 nM and < 3.16 nM.
For the molecule `N#Cc1ccc(NS(=O)(=O)c2coc3cc(Cl)ccc23)cc1` [Compound I-139, 6-chloro-N-(4-cyanophenyl)-1-benzofuran-3-sulfonamide], the Kb at GPR17 [1] is > 31.6 nM. The IC50 at GPR17 [2] was 3.16 to 31.6 nM.
`O=S(=O)(Nc1ccc(I)cc1F)c1c[nH]c2cc(Cl)ccc12` [Compound I-140, 6-chloro-N-(2-fluoro-4-iodophenyl)-1H-indole-3-sulfonamide]: the Kb at GPR17 [1] was < 3.16 nM. Also, at GPR17 [2], the IC50 was < 3.16 nM.
`O=S(=O)(Nc1ccc(Cl)cc1F)c1c[nH]c2cc(Cl)ccc12` [Compound I-141, 6-chloro-N-(4-chloro-2-fluorophenyl)-1H-indole-3-sulfonamide]: at GPR17 [1], the Kb was < 3.16 nM. The IC50 at GPR17 [2] was 3.16 to 31.6 nM.
For the molecule `O=S(=O)(Nc1cccc2n[se]nc12)c1c[nH]c2cc(Cl)ccc12` [Compound I-142, N-(2,1,3-benzoselenadiazol-4-yl)-6-chloro-1H-indole-3-sulfonamide], the Kb on GPR17 [1] was < 3.16 nM. For the same molecule, on GPR17 [2], the IC50 is < 3.16 nM.
`COc1cc(NS(=O)(=O)c2c[nH]c3cc(Cl)ccc23)c(F)cc1C#N` [Compound I-143, 6-chloro-N-(4-cyano-2-fluoro-5-methoxyphenyl)-1H-indole-3-sulfonamide]: the Kb at GPR17 [1] was < 3.16 nM. Moreover, the IC50 on GPR17 [2] is < 3.16 nM.
For `O=S(=O)(Nc1ccc2nsnc2c1)c1c[nH]c2cc(Cl)ccc12` [Compound I-147, N-(2,1,3-benzothiadiazol-5-yl)-6-chloro-1H-indole-3-sulfonamide], the Kb on GPR17 [1] was 3.16 to 31.6 nM. Besides, at GPR17 [2], the IC50 was 3.16 to 31.6 nM.
With `N#Cc1ccc(NS(=O)(=O)c2c[nH]c3c4c(ccc23)CCC4)c(F)c1` [Compound I-150, N-(4-cyano-2-fluorophenyl)-1,6,7,8-tetrahydrocyclopenta[g]indole-3-sulfonamide], the Kb at GPR17 [1] is < 3.16 nM. On GPR17 [2], the IC50 is 3.16 to 31.6 nM.
In the same order, the values of `N#Cc1cc(F)c(NS(=O)(=O)c2c[nH]c3c2ccc2ccccc23)cc1F` [Compound I-151, N-(4-cyano-2,5-difluorophenyl)-1H-benzo[g]indole-3-sulfonamide] are < 3.16 nM and < 3.16 nM.
The matching figures for `N#Cc1ccc(NS(=O)(=O)c2c[nH]c3c2ccc2ccccc23)c(F)c1` [Compound I-152, N-(4-cyano-2-fluorophenyl)-1H-benzo[g]indole-3-sulfonamide]: < 3.16 nM and < 3.16 nM.
`N#Cc1cc(F)c(NS(=O)(=O)c2c[nH]c3cc(OCc4ccccc4)ccc23)cc1F` [Compound I-153, 6-(benzyloxy)-N-(4-cyano-2,5-difluorophenyl)-1H-indole-3-sulfonamide]: the Kb at GPR17 [1] is 3.16 to 31.6 nM. The IC50 on GPR17 [2] was < 3.16 nM.
Turning to `N#Cc1ccc(NS(=O)(=O)c2c[nH]c3cc(OCc4ccccc4)ccc23)c(F)c1` [Compound I-154, 6-(benzyloxy)-N-(4-cyano-2-fluorophenyl)-1H-indole-3-sulfonamide], the Kb at GPR17 [1] was 3.16 to 31.6 nM. For the same molecule, the IC50 on GPR17 [2] is < 3.16 nM.
The matching figures for `O=S(=O)(Nc1cccc2nsnc12)c1c[nH]c2c1ccc1ccccc12` [Compound I-155, N-(2,1,3-benzothiadiazol-4-yl)-1H-benzo[g]indole-3-sulfonamide]: < 3.16 nM and 3.16 to 31.6 nM.
With `N#Cc1ccc(NS(=O)(=O)c2c[nH]c3c2ccc2ccccc23)cc1` [Compound I-159, N-(4-cyanophenyl)-1H-benzo[g]indole-3-sulfonamide], at GPR17 [1], the Kb is 3.16 to 31.6 nM. In addition, the IC50 on GPR17 [2] is 3.16 to 31.6 nM.
In the case of `O=S(=O)(Nc1cc2nsnc2cc1F)c1c[nH]c2c1ccc1ccccc12` [Compound I-160, N-(6-fluoro-2,1,3-benzothiadiazol-5-yl)-1H-benzo[g]indole-3-sulfonamide], the Kb at GPR17 [1] is 3.16 to 31.6 nM. The IC50 on GPR17 [2] is < 3.16 nM.
As to `O=S(=O)(Nc1cc2nsnc2cc1F)c1c[nH]c2cc(Cl)ccc12` [Compound I-162, 6-chloro-N-(6-fluoro-2,1,3-benzothiadiazol-5-yl)-1H-indole-3-sulfonamide], the Kb at GPR17 [1] was < 3.16 nM. Also, at GPR17 [2], the IC50 was < 3.16 nM.
With `CC(C)c1ccc2c(S(=O)(=O)Nc3ccc(C#N)cc3F)c[nH]c2c1` [Compound I-170, N-(4-cyano-2-fluorophenyl)-6-(propan-2-yl)-1H-indole-3-sulfonamide], on GPR17 [1], the Kb was < 3.16 nM. For the same molecule, the IC50 at GPR17 [2] is < 3.16 nM.
`Cc1ccc2c(S(=O)(=O)Nc3ccc(Br)cc3F)c[nH]c2c1` [Compound I-173, N-(4-bromo-2-fluorophenyl)-6-methyl-1H-indole-3-sulfonamide]: the Kb on GPR17 [1] was 3.16 to 31.6 nM. Further, the IC50 on GPR17 [2] was 3.16 to 31.6 nM.
Take `Cc1ccc2c(S(=O)(=O)Nc3ccc(Cl)cc3F)c[nH]c2c1` [Compound I-174, N-(4-chloro-2-fluorophenyl)-6-methyl-1H-indole-3-sulfonamide]: at GPR17 [1], the Kb was 3.16 to 31.6 nM. Further, on GPR17 [2], the IC50 was 3.16 to 31.6 nM.
Regarding `COc1cc(Cl)c(F)cc1NS(=O)(=O)c1c[nH]c2c1ccc1ccccc12` [Compound I-175, N-(4-chloro-5-fluoro-2-methoxyphenyl)-1H-benzo[g]indole-3-sulfonamide], on GPR17 [1], the Kb was 3.16 to 31.6 nM. Besides, the IC50 at GPR17 [2] was > 31.6 nM.
The matching figures for `N#Cc1ccc(NS(=O)(=O)c2c[nH]c3nc(Br)ccc23)c(F)c1` [Compound I-177, 6-bromo-N-(4-cyano-2-fluorophenyl)-1H-pyrrolo[2,3-b]pyridine-3-sulfonamide]: < 3.16 nM and < 3.16 nM.
The matching figures for `N#Cc1ccc(NS(=O)(=O)c2c[nH]c3nc(Cl)ccc23)cc1` [Compound I-178, 6-chloro-N-(4-cyanophenyl)-1H-pyrrolo[2,3-b]pyridine-3-sulfonamide]: 3.16 to 31.6 nM and 3.16 to 31.6 nM.
In the same order, the values of `O=S(=O)(Nc1ccc2nsnc2c1)c1c[nH]c2nc(Cl)ccc12` [Compound I-179, N-(2,1,3-benzothiadiazol-5-yl)-6-chloro-1H-pyrrolo[2,3-b]pyridine-3-sulfonamide] are 3.16 to 31.6 nM and < 3.16 nM.
Take `N#Cc1ccc(NS(=O)(=O)c2c[nH]c3cc(Cl)ccc23)cc1Cl` [Compound I-181, 6-chloro-N-(3-chloro-4-cyanophenyl)-1H-indole-3-sulfonamide]: on GPR17 [1], the Kb is 3.16 to 31.6 nM. For the same molecule, the IC50 on GPR17 [2] is 3.16 to 31.6 nM.
